{
  "source": "patent US20230037453A1",
  "about": "“PREPARATION FOR USE AS VASORELAXANT” (Evonik Operations GmbH, priority 2020, published 2023)",
  "data": [
    {"system": "mice mesenteric arteries", "test": "Vascular reactivity: vasorelaxation of phenylephrine-precontracted mesenteric arteries (wire or pressure myograph)", "type": "cell-based", "settings": "phenylephrine-precontracted mice mesenteric arteries, increasing doses 5 - 300 µg/mL", "protocol": "(§1) Second-order branches of the mesenteric arterial tree were removed from mice to perform vascular studies. […] First, an analysis of vascular reactivity curves was performed. In particular, vasoconstriction was assessed with 80 mmol/L of KCI or with increasing doses of phenylephrine (from 10^-9 M to 10^-6 M) in control conditions. Endothelium-dependent and -independent relaxations were assessed by measuring the dilatory responses of mesenteric arteries to cumulative concentrations of acetylcholine (from 10^-9 M to 10^-6 M) or nitroglycerine (from 10^-9 M to 10^-6 M) respectively, in vessels precontracted with phenylephrine at the dose necessary to obtain a similar level of precontraction in each ring (80% of initial KCI-evoked contraction). Caution was taken to avoid endothelial damage; functional integrity was reflected by the response to acetylcholine (from 10^-9 M to 10^-6 M). […]\n(§2) F) Comparison of vasorelaxant effect of AvailOm®, ω 3-FA, ω 3-EE or L-Lysine. Statistical analyses were performed using two-way ANOVA followed Bonferroni post-hoc test. *p<0.05; **p<0.01, ***p<0.001.", "values": [
      {"compound": "NCCCC[C@H](N)C(=O)O", "note": "[L-Lysine]", "direct vasorelaxant action (dose-response)": "did not evoke any vasorelaxant effect"}
    ]},
    {"system": "mice mesenteric arteries", "test": "Vascular reactivity: vasorelaxation of phenylephrine-precontracted mesenteric arteries (wire or pressure myograph)", "type": "cell-based", "settings": "single anthocyanins 1 - 100 µg/mL, dose-response curves", "protocol": "as §1, §2", "values": [
      {"compound": "C[C@@H]1O[C@@H](OC[C@H]2O[C@@H](Oc3cc4c(O)cc(O)cc4[o+]c3-c3ccc(O)c(O)c3)[C@H](O)[C@@H](O)[C@@H]2O)[C@H](O)[C@H](O)[C@H]1O", "note": "[C3-rut, Cyanidin-3-rutinoside]", "vasorelaxation reached": "~36,5%"},
      {"compound": "OC[C@H]1O[C@@H](Oc2cc3c(O)cc(O)cc3[o+]c2-c2cc(O)c(O)c(O)c2)[C@H](O)[C@@H](O)[C@H]1O", "note": "[DP3-gal, Delphinidin-3-galactoside]", "vasorelaxation reached": "about 32,5%"}
    ]},
    {"system": "mice mesenteric arteries", "test": "Vascular reactivity: vasorelaxation of phenylephrine-precontracted mesenteric arteries (wire or pressure myograph)", "type": "cell-based", "settings": "single anthocyanins 1 - 100 µg/mL, phenylephrine-precontracted mice mesenteric arteries", "protocol": "as §1, §2", "values": [
      {"compound": "OC[C@H]1O[C@@H](Oc2cc3c(O)cc(O)cc3[o+]c2-c2ccc(O)c(O)c2)[C@H](O)[C@@H](O)[C@H]1O", "note": "[C3-gal, Cyanidin-3-galactoside]", "direct vascular action: dose-dependent vasorelaxation compared with Healthberry 865": "able to reproduce the direct vasorelaxant effect of Healthberry 865®"},
      {"compound": "OC[C@H]1O[C@@H](Oc2cc3c(O)cc(O)cc3[o+]c2-c2ccc(O)c(O)c2)[C@H](O)[C@@H](O)[C@@H]1O", "note": "[C3-glu, Cyanidin-3-glucoside]", "direct vascular action: dose-dependent vasorelaxation compared with Healthberry 865": "none of the single anthocyanins was able to evoke a dose-dependent vasorelaxation comparable to that observed after Healthberry 865® administration"},
      {"compound": "C[C@@H]1O[C@@H](OC[C@H]2O[C@@H](Oc3cc4c(O)cc(O)cc4[o+]c3-c3ccc(O)c(O)c3)[C@H](O)[C@@H](O)[C@@H]2O)[C@H](O)[C@H](O)[C@H]1O", "note": "[C3-rut, Cyanidin-3-rutinoside]", "direct vascular action: dose-dependent vasorelaxation compared with Healthberry 865": "none of the single anthocyanins was able to evoke a dose-dependent vasorelaxation comparable to that observed after Healthberry 865® administration"},
      {"compound": "Oc1cc(O)c2cc(O[C@H]3OC[C@H](O)[C@H](O)[C@H]3O)c(-c3cc(O)c(O)c(O)c3)[o+]c2c1", "note": "[DP3-ara, Delphinidin-3-arabinoside]", "direct vascular action: dose-dependent vasorelaxation compared with Healthberry 865": "none of the single anthocyanins was able to evoke a dose-dependent vasorelaxation comparable to that observed after Healthberry 865® administration"},
      {"compound": "OC[C@H]1O[C@@H](Oc2cc3c(O)cc(O)cc3[o+]c2-c2cc(O)c(O)c(O)c2)[C@H](O)[C@@H](O)[C@H]1O", "note": "[DP3-gal, Delphinidin-3-galactoside]", "direct vascular action: dose-dependent vasorelaxation compared with Healthberry 865": "none of the single anthocyanins was able to evoke a dose-dependent vasorelaxation comparable to that observed after Healthberry 865® administration"},
      {"compound": "OC[C@H]1O[C@@H](Oc2cc3c(O)cc(O)cc3[o+]c2-c2cc(O)c(O)c(O)c2)[C@H](O)[C@@H](O)[C@@H]1O", "note": "[DP3-glu, Delphinidin-3-glucoside]", "direct vascular action: dose-dependent vasorelaxation compared with Healthberry 865": "none of the single anthocyanins was able to evoke a dose-dependent vasorelaxation comparable to that observed after Healthberry 865® administration"},
      {"compound": "COc1cc(-c2[o+]c3cc(O)cc(O)c3cc2O[C@@H]2O[C@H](CO)[C@H](O)[C@H](O)[C@H]2O)cc(OC)c1O", "note": "[MAL3-gal, Malvidin-3-galactoside]", "direct vascular action: dose-dependent vasorelaxation compared with Healthberry 865": "none of the single anthocyanins was able to evoke a dose-dependent vasorelaxation comparable to that observed after Healthberry 865® administration"},
      {"compound": "COc1cc(-c2[o+]c3cc(O)cc(O)c3cc2O[C@@H]2O[C@H](CO)[C@@H](O)[C@H](O)[C@H]2O)cc(OC)c1O", "note": "[MAL3-glu, Malvidin-3-glucoside]", "direct vascular action: dose-dependent vasorelaxation compared with Healthberry 865": "none of the single anthocyanins was able to evoke a dose-dependent vasorelaxation comparable to that observed after Healthberry 865® administration"},
      {"compound": "COc1cc(-c2[o+]c3cc(O)cc(O)c3cc2O[C@@H]2O[C@H](CO)[C@@H](O)[C@H](O)[C@H]2O)cc(O)c1O", "note": "[PT3-glu, Petunidin-3-glucoside]", "direct vascular action: dose-dependent vasorelaxation compared with Healthberry 865": "none of the single anthocyanins was able to evoke a dose-dependent vasorelaxation comparable to that observed after Healthberry 865® administration"},
      {"compound": "Peonidin-3-galactoside [PEO3-gal]", "direct vascular action: dose-dependent vasorelaxation compared with Healthberry 865": "none of the single anthocyanins was able to evoke a dose-dependent vasorelaxation comparable to that observed after Healthberry 865® administration"}
    ]}
  ]
}
